Experimental data: patent US5098933A, “Pharmaceutically useful Michael addition products of unsaturated aldehydes and ketones and ascorbic acid” (Theracel Corporation, priority 1990, dated 1992)
Read-outs that look alike come from different tables or passages of the source.

Key:
[1] = tested on: T- and B- lymphocyte isolated from mouse spleens; test: Lymphocyte Blastogenesis Assay; assay type: in vivo; conditions: for RPMI CONTROL: no mitogen (Table 7); for activation at 25 mg/kg / activation at 50 mg/kg / activation at 100 mg/kg: Mus musculus, Lymphocyte
From the text: This assay measures the ability of the compound under test to affect DNA synthesis and mitosis of T- and B- lymphocyte isolated from mouse spleens.
Mitogens are substances which stimulate DNA synthesis and mitosis. The mitogens used in these studies were phytohemaglutinin (PHA) which is isolated from the red kidney bean and concanavalin-A (Con-A) which is isolated form the jack bean. Con-A binds to specific receptors (glycoproteins) containing mannosyl or glycosyl moieties and stimulates all murine T-cells to synthesize DNA, divide, and release lymphokines. Con-A in a soluble form allows distinction between T- and B-cells in the mouse, because although both T- and B-cells can bind 106 molecules of Con-A per cell, only T-cells are stimulated when this lectin is presented in a soluble form. PHA stimulates only subpopulations, T-2 cells, of T-cells in the mouse. Also, Con-A stimulates the production of cytokines such as Interleukin-2 (IL-2). In humans, both T- and B-cells are probably stimulated. The activation of B-cells by PHA may be indirect and mediated by the release of soluble mediators from PHA-activated T-cells.
The lymphocyte blastogenesis test is a method to assess the ability of immunocompetent T- or B-cells to respond to a polyclonal mitogen (i.e. PHA or Con-A) or a specific antigen. It may be performed on lymphocytes obtained from mice treated with immunostimulators in vivo or the entire assay can be performed in vitro. The assay as described below uses minimal doses of polyclonal mitogens to induce blastogenesis (proliferation measure by DNA synthesis), in order to be able to assess the phenomena of amplification.
1. Sacrifice two mice/experimental group by cervical dislocation.
14. […]
15. Include in the experiment a control plate which contains the same cells group as above, but receive a 0.1 ml of media instead of mitogen.
18. After 48 hours all wells receive 0.025 mls of a 0.4 microcurie/ml solution of C-14 methyl thymidine and incubate at 37 C, 5% CO-2 for 18 hours.

[2] = tested on: plaque forming cells, antibody specific to sheep red blood cells; test: Jerne Hemolytic Plaque Assay; assay type: in vivo, mice
Experimental: This assay measures the IgM or IgG isotypes of specific antibody produced by antigen used to immunize the mice. […] The direct assay detects IgM and the indirect assay detects IgG-specific antibody.
Washed spleen cells are added to an agarose (FMC, Rockland, Me.) preparation containing sheep red blood cells (SRBC) and guinea pig complement. A drop of this mixture is transferred to a small petri dish; a cover slip is then placed over the drop to flatten it. The agarose prep is allowed to solidify. Then, the dishes are placed in a small humidified changer inside a CO-2 incubator overnight.
Small pinpoint cleared areas (plaques) will be observed under the cover slip. The cleared areas are caused by antibody, specific to the SRBC's being released by stimulated spleen cells and in conjunction with the complement, lyse surrounding SRBC's. These plaque forming cells (PFC's) are counted, and calculations are performed to obtain PFC's per […] spleen cells.
1. Spleens are harvested from mice according to a standard procedure and adjusted to a final concentration of 20% in […].
14. Count and record the number of hemolytic plaques per plate. Average plaque counts between the duplicate sets. Multiply the average number of plaques per group by 2.5 to obtain the number of plaque forming cells per million spleen cells.

`O=C1CCCC(C2(O)C(=O)OC3C(O)COC32O)C1` (single isomer, unassigned) [KCBL-A] was tested, and the “CON-A 6 ug/ml” value ([1]; 12.5 mg/kg (Table 7)) was 3412.0 counts per minute, the “PHA 14 ug/ml” value ([1]; 12.5 mg/kg (Table 7)) was 1450.0 counts per minute and the “RPMI CONTROL” value ([1]; 12.5 mg/kg) was 94.0 counts per minute. The “CON-A 6 ug/ml” value ([1]; 25.0 mg/kg (Table 7)) was 5657.0 counts per minute, the “PHA 14 ug/ml” value ([1]; 25.0 mg/kg (Table 7)) was 2178.0 counts per minute and the “RPMI CONTROL” value ([1]; 25.0 mg/kg) was 77.0 counts per minute. For the same compound, the “CON-A 6 ug/ml” value ([1]; 50.0 mg/kg (Table 7)) was 5059.0 counts per minute, the “PHA 14 ug/ml” value ([1]; 50.0 mg/kg (Table 7)) was 2369.0 counts per minute and the “RPMI CONTROL” value ([1]; 50.0 mg/kg) was 50.0 counts per minute. The “CON-A 6 ug/ml” value ([1]; 100.0 mg/kg (Table 7)) was 4104.0 counts per minute, the “PHA 14 ug/ml” value ([1]; 100.0 mg/kg (Table 7)) was 2384.0 counts per minute and the “RPMI CONTROL” value ([1]; 100.0 mg/kg) was 76.0 counts per minute. For the same compound, the activation at 25 mg/kg ([1]; 25.0 mg/kg (Table 7), read-out: % INCREASE (CON-A 6 ug/ml)) was 56.6%, the activation at 25 mg/kg ([1]; 25.0 mg/kg (Table 7), read-out: % INCREASE (PHA 14 ug/ml)) was 26.1% and the activation at 50 mg/kg ([1]; 50.0 mg/kg (Table 7), read-out: % INCREASE (CON-A 6 ug/ml)) was 40%. For the same compound, the activation at 50 mg/kg ([1]; 50.0 mg/kg (Table 7), read-out: % INCREASE (PHA 14 ug/ml)) was 37.1%, the activation at 100 mg/kg ([1]; 100.0 mg/kg (Table 7), read-out: % INCREASE (CON-A 6 ug/ml)) was 13.6% and the activation at 100 mg/kg ([1]; 100.0 mg/kg (Table 7), read-out: % INCREASE (PHA 14 ug/ml)) was 38%. For the same compound, the “% INCREASE” value ([2]; 12.5 mg/ml (Table 10)) was 100%, the PFC ([2]; 12.5 mg/ml (Table 10)) was 112.00 PFC/1 MILLION CELLS and the “% INCREASE” value ([2]; 25 mg/kg (Table 10)) was 104%. For the same compound, the PFC ([2]; 25 mg/kg (Table 10)) was 115.00 PFC/1 MILLION CELLS, the “% INCREASE” value ([2]; 50 mg/kg (Table 10)) was 193% and the PFC ([2]; 50 mg/kg (Table 10)) was 165.00 PFC/1 MILLION CELLS. For the same compound, the “% INCREASE” value ([2]; 100 mg/kg (Table 10)) was 318%, the PFC ([2]; 100 mg/kg (Table 10)) was 235.00 PFC/1 MILLION CELLS and the “% INCREASE” value ([2]; 200 mg/kg (Table 10)) was 215%. The PFC ([2]; 200 mg/kg (Table 10)) was 177.50 PFC/1 MILLION CELLS.
